The results in this text go back to ChEMBL document CHEMBL1152294, “Identification of KD5170: a novel mercaptoketone-based histone deacetylase inhibitor” (Bioorg Med Chem Lett, 2008).

In brackets after ≈: the same amount, converted by molar mass. Activity calls are given as the source filed them. The rule behind the calls is not given here.

In one series the target is Histone deacetylase. The experiment in a line: Inhibition of HDAC in human HeLa cells assessed as histone H3 hyperacetylation. It counts as cell-based.
In series [1] the test system is HCT-116. Kind of series: Cytotoxicity against human HCT116 cells. It counts as functional, cell-based.
Series [2] in a line: (§1) Cytotoxicity against human […] cells. It counts as functional, cell-based.
The test system of series [3] is Mus musculus. The experiment in a line: Induction of histone H3 hyperacetylation in human HCT116 cells xenografted in nude mouse at 30 mg/kg, po after 4 hrs by immunoblotting relative to control. As to conditions: HCT-116. Also noted: dose 30 mg/kg. The series is classed as functional, organism-based.
In series [4] the test system is Mus musculus. Kind of series: Induction of histone H3 hyperacetylation in human HCT116 cells xenografted in nude mouse at 30 mg/kg, po after 8 hrs by immunoblotting relative to control. The series is classed as functional, organism-based. Also noted: dose 30 mg/kg. As to conditions: HCT-116.
A short description of series [5]: Aqueous solubility of the compound. The following applies: buffer. The series is classed as physicochemical.
The next series addresses Cytochrome P450 2D6 (Homo sapiens, UniProt P10635). Kind of series: Inhibition of CYP2D6. The series is classed as ADME.
The target in the next series is Cytochrome P450 2C9 (Homo sapiens, UniProt P11712). Kind of series: Inhibition of CYP2C9. The series is classed as ADME.
For another series, the target named is Cytochrome P450 2C19 (Homo sapiens, UniProt P33261). The experiment in a line: Inhibition of CYP2C19. It counts as ADME.
The next series has as its target T1, Cytochrome P450 1A2 (Homo sapiens, UniProt P05177).
T1 sequence (P05177 whole entry): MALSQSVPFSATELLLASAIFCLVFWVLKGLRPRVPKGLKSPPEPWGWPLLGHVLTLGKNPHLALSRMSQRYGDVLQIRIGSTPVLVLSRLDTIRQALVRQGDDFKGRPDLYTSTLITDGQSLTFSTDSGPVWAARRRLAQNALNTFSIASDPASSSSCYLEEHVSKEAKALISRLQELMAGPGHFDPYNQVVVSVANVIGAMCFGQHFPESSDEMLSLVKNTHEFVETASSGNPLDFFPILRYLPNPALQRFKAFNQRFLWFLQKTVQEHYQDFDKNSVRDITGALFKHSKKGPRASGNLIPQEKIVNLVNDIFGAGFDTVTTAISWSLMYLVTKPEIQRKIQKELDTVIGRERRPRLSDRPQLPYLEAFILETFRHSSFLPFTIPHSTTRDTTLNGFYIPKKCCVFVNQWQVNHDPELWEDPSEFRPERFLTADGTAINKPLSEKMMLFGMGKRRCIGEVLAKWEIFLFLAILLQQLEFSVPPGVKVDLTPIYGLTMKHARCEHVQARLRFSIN
The experiment in a line: Inhibition of CYP1A2. It counts as ADME.

Series [6] concerns the target Voltage-gated inwardly rectifying potassium channel KCNH2 (Homo sapiens, UniProt Q12809). The experiment in a line: Inhibition of human ERG by patch-clamp assay.
The test system of another series is HT-29. The experiment in a line: Cytotoxicity against human HT-29 cells. It counts as functional, cell-based.
In a further series the test system is MDA-MB-435. The experiment in a line: Cytotoxicity against human MDA-MB-435 cells. The series is classed as functional, cell-based.
The subject of the next series is NCI-H460. The experiment in a line: Cytotoxicity against human H460 cells. It counts as functional, cell-based.
A further series relates to SK-OV-3. The experiment in a line: Cytotoxicity against human SKOV3 cells. The series is classed as functional, cell-based.
In the next series the test system is PC-3. Kind of series: Cytotoxicity against human PC3 cells. It counts as functional, cell-based.
For the next series, the system named is 786-0. The experiment in a line: Cytotoxicity against human 786-0 cells. The series is classed as functional, cell-based.
The next series has as its system HL-60. Kind of series: Cytotoxicity against human HL60 cells. The series is classed as functional, cell-based.
Series [7] in a line: Cytotoxicity against human MJ cells. It counts as functional, cell-based.
For series [8], the system named is Mus musculus. Kind of series: Induction of histone H3 hyperacetylation in human HCT116 cells xenografted in nude mouse at 42 mg/kg, po by immunoblotting relative to control. The series is classed as functional, HCT-116.
For series [9], the system named is Mus musculus. The experiment in a line: Induction of histone H3 hyperacetylation in human HCT116 cells xenografted in nude mouse at 42 mg/kg, iv by immunoblotting relative to control. The series is classed as functional, HCT-116. On the technique in general: Xenograft models place foreign cells or tissue in a host animal.
Series [10] relates to HCT-116. Kind of series: Antitumor activity against human HCT116 cells xenografted in nude mouse assessed as tumor growth inhibition at 42 mg/kg, po QOD for 14 days relative to control. It counts as functional. Also noted: scale not given: the % may be the effect or the level left.
For series [11], the system named is HCT-116. Kind of series: Antitumor activity against human HCT116 cells xenografted in nude mouse assessed as tumor growth inhibition at 84 mg/kg, po QOD for 14 days relative to control. The series is classed as functional. Set-up: scale not given: the % may be the effect or the level left.
For the next series, the target named is Cytochrome P450 3A4 (Homo sapiens, UniProt P08684). Kind of series: Inhibition of CYP3A4. It counts as ADME.
For series [12], the system named is Mus musculus. The experiment in a line: Induction of histone H3 hyperacetylation in human HCT116 cells xenografted in nude mouse at 50 mg/kg, po by immunoblotting relative to control. The series is classed as functional, HCT-116.
Another series concerns U226. The description is as §1. The series is classed as functional, cell-based.

Chain of Cytochrome P450 2C9 (P11712 whole entry): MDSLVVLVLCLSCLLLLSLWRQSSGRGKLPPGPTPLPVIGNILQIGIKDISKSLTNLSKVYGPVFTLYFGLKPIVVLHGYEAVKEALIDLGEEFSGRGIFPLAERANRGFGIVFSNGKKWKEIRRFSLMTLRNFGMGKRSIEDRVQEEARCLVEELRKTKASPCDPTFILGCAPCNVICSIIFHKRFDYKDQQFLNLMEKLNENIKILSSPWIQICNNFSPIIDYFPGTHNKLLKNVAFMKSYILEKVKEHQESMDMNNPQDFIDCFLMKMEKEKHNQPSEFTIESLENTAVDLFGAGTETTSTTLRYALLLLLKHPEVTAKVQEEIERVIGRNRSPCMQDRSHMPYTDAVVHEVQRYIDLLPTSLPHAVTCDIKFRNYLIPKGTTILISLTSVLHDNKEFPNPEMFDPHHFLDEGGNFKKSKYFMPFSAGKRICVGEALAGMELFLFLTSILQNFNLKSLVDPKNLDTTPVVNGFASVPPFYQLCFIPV
Chain of Cytochrome P450 2C19 (P33261 whole entry): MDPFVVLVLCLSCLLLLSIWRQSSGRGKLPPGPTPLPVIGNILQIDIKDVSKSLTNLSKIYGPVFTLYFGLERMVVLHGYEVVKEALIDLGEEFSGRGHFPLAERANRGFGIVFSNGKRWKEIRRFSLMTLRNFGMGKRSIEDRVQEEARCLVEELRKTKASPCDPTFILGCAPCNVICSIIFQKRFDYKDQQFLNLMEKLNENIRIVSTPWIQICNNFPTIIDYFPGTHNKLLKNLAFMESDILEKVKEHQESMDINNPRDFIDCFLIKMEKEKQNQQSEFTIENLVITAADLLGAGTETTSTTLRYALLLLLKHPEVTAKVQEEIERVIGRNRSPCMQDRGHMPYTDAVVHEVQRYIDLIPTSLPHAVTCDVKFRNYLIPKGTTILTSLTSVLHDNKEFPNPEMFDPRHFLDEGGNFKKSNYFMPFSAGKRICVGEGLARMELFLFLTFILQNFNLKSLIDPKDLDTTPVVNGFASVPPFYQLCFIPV
Chain of Cytochrome P450 2D6 (P10635 whole entry): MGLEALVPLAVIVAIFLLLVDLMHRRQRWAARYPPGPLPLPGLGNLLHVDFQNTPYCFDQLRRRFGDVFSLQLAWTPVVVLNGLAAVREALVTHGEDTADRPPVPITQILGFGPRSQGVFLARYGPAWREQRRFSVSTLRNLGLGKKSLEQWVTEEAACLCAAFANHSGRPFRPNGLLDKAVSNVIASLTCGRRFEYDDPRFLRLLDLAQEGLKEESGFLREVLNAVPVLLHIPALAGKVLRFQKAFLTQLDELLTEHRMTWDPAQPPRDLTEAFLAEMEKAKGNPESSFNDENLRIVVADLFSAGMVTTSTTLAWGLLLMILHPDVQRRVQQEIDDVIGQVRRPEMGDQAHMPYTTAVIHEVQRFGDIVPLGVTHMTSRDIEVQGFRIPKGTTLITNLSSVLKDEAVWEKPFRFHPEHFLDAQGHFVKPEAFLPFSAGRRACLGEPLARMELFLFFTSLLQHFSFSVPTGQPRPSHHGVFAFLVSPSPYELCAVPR
Chain of Voltage-gated inwardly rectifying potassium channel KCNH2 (Q12809 whole entry): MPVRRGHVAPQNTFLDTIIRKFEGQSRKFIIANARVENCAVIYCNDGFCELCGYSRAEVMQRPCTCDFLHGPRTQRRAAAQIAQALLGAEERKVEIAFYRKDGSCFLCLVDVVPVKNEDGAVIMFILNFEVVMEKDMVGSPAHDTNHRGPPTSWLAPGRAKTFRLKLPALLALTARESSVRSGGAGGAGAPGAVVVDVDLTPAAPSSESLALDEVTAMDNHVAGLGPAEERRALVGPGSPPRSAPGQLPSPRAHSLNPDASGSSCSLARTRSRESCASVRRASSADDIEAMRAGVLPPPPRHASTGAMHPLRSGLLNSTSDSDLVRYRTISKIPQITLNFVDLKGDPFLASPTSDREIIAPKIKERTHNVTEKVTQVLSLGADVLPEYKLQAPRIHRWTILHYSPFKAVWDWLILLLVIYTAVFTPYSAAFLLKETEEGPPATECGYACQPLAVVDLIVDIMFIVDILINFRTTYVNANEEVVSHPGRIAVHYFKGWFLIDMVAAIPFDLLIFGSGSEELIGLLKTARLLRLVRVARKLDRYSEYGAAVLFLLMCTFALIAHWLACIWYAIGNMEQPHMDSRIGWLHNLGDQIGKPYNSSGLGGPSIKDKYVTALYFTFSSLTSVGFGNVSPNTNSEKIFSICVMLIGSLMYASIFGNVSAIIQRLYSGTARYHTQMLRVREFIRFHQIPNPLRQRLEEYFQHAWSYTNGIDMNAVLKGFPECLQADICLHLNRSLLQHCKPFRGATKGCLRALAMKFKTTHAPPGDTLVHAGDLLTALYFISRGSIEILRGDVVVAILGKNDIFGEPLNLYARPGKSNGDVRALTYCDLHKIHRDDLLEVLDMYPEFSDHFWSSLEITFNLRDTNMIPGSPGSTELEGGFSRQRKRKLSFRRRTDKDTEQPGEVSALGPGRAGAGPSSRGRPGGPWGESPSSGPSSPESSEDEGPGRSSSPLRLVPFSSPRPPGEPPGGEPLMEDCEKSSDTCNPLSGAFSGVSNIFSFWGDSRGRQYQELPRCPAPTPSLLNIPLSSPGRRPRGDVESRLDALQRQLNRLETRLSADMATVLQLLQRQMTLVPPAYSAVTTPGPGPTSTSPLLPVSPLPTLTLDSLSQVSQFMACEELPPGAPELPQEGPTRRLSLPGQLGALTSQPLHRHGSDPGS
Chain of Cytochrome P450 3A4 (P08684 whole entry): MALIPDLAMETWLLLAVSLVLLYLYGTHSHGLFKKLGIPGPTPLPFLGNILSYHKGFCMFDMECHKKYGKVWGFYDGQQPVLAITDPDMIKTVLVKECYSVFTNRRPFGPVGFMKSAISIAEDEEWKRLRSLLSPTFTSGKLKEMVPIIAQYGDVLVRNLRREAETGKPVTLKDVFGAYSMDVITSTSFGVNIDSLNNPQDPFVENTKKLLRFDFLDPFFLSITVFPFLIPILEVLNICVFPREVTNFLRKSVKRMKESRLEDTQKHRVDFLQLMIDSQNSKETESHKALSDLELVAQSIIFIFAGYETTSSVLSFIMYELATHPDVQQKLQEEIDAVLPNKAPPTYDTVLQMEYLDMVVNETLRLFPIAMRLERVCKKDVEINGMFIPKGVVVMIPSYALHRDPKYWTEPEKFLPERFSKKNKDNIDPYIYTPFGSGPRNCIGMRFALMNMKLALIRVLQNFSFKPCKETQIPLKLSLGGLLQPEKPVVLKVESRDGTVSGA

As for `CC(=O)SCC(=O)c1ccc(NS(=O)(=O)c2ccc(OCCCO)cc2)nc1`, the EC50 – broadly, the midpoint of the concentration-response curve – was determined as 110 nM on Histone deacetylase and 8600 nM in the series on HCT-116 [1].
`CC(=O)SCC(=O)c1ccc(NS(=O)(=O)c2ccc(OCCCc3ccccn3)cc2)nc1`: on Histone deacetylase, the EC50 was determined as 220 nM.
With `CC(=O)SCC(=O)c1ccc(NS(=O)(=O)c2ccc(OCCCN3CCCC3)cc2)nc1`, the concentration giving a half-maximal response (EC50) stood at 61 nM on Histone deacetylase, 820 nM in the series with HCT-116 [1] and 400 nM in [2].
The like results for `CC(=O)SCC(=O)c1ccc(NS(=O)(=O)c2ccc(OCCCN3CCOCC3)cc2)nc1` were, in that order, 67 nM, 330 nM and 19000 nM.
Turning to `CC(=O)SCC(=O)c1ccc(NS(=O)(=O)c2ccc(OCCCN(C)C)cc2)nc1` [listing 1 of 2 here], the result in the series on Mus musculus [3] and in the series with Mus musculus [4] was Active.
With `COc1cccc(S(=O)(=O)Nc2ccc(C(=O)CSC(C)=O)cn2)c1`, the EC50 at Histone deacetylase stood at 190 nM; in the series on HCT-116 [1], 4300 nM.
Turning to `CC(=O)SCC(=O)c1ccc(NS(=O)(=O)c2ccc(OCCCCN(C)C)cc2)nc1`, the EC50 at Histone deacetylase came out at 29 nM; in the series on HCT-116 [1], 280 nM; in series [2], 120 nM.
Regarding `COc1ccc(S(=O)(=O)Nc2ccc(C(=O)CSC(C)=O)cn2)cc1`, the figures for the EC50 on Histone deacetylase and in the series with HCT-116 [1] were 29 nM and 540 nM, respectively.
As for `COCCCOc1ccc(S(=O)(=O)Nc2ccc(C(=O)CSC(C)=O)cn2)cc1`, the values for the EC50 (at Histone deacetylase; in the series on HCT-116 [1]; in [2]) were 120 nM, 5300 nM and 29000 nM, respectively.
`CC(=O)SCC(=O)c1ccc(NS(=O)(=O)c2ccc(OC3CCN(C)CC3)cc2)nc1`: the 50% effective concentration (EC50) at Histone deacetylase is 44 nM; in the series with HCT-116 [1], 180 nM; in [2], 300 nM.
For `CC(=O)SCC(=O)c1ccc(NS(=O)(=O)c2ccc(OCCc3ccccn3)cc2)nc1`, in that order: 190 nM, 750 nM and 9600 nM.
`Br.CC(=O)SCC(=O)c1ccc(NS(=O)(=O)c2ccc(OCCCN(C)C)cc2)nc1`: in series [5], the solubility (usually the dissolved amount per volume that the medium holds) turned out to be 10000 µg/mL. Further, the EC50 at Cytochrome P450 2D6 is > 50000 nM; on Cytochrome P450 2C9 it was > 50000 nM; on Cytochrome P450 2C19, > 50000 nM; on Cytochrome P450 1A2, > 50000 nM; in [6], > 30000 nM.
`CC(=O)SCC(=O)c1ccc(NS(=O)(=O)c2ccc(OCCCN(C)C)cc2)nc1` [listing 2 of 2 here]: the EC50 was determined as 45 nM on Histone deacetylase; 140 nM in the series on HCT-116 [1]; 180 nM in series [2]; 1000 nM in the series with HT-29; 180 nM in the series on MDA-MB-435; 230 nM with NCI-H460. In addition, the EC50 with SK-OV-3 was determined as 760 nM; in the series with PC-3 it was 740 nM; with 786-0, 590 nM; in the series on HL-60, 390 nM; in series [7], 170 nM. The “fold change (FC)” value with Mus musculus [8] was determined as 9; with Mus musculus [9], 12. Moreover, the Activity with HCT-116 [10] was 44%; in the series on HCT-116 [11], 25%.
On to `CC(=O)SCC(=O)c1ccc(NS(=O)(=O)c2ccc(OCc3ccccn3)cc2)nc1`, for which the EC50 at Histone deacetylase was 220 nM; in the series on HCT-116 [1] it was 420 nM.
`CC(=O)SCC(=O)c1ccc(NS(=O)(=O)c2ccc3c(c2)COOC3)nc1`: the EC50 on Histone deacetylase is 38 nM; in the series on HCT-116 [1], 1200 nM; in series [2] it was 2000 nM; at Cytochrome P450 3A4, > 50000 nM; at Cytochrome P450 2D6, > 50000 nM; at Cytochrome P450 2C9, 10000 nM. The EC50 on Cytochrome P450 2C19 is > 50000 nM; on Cytochrome P450 1A2, > 50000 nM; in [6], > 30000 nM. This molecule gave a solubility in series [5] of 200 µg/mL (≈ 490 µM). In addition, in the series with Mus musculus [12], the “fold change (FC)” value was 5.
As to `CC(=O)SCC(=O)c1ccc(NS(=O)(=O)c2ccc(OCCCN3CCCCC3)cc2)nc1`, the EC50 is 53 nM on Histone deacetylase, 1000 nM in the series on HCT-116 [1] and 800 nM in series [2].
Regarding `CC(=O)SCC(=O)c1ccc(NS(=O)(=O)c2ccc(OCCN(C)C)cc2)nc1`, the concentration for a half-maximal effect (EC50) on Histone deacetylase is 93 nM; in the series on HCT-116 [1], 660 nM. In addition, in the series on U226, the outcome was inactive.
For the molecule `CC(=O)SCC(=O)c1ccc(NS(=O)(=O)c2ccc(OC3CCCN(C)C3)cc2)nc1` (stereo not given), the EC50 at Histone deacetylase was determined as 110 nM; in the series on HCT-116 [1], 3700 nM; in series [2], 1200 nM.
